Test results taken from ChEMBL document CHEMBL1129748, “Structure-activity relationships of 4-hydroxy-3-nitroquinolin-2(1H)-ones as novel antagonists at the glycine site of N-methyl-D-aspartate receptors” (J Med Chem, 1996).

Biological target: T1, Glutamate receptor ionotropic, AMPA (Rattus norvegicus) (UniProt P19491+P19492+P19493+P19490)
Assay: Compound was tested for inhibition of AMPA receptors was measured in oocytes expressing rat cerebral cortex poly(A)+ RNA.(Three cells were examined )
Format: functional, cell-based
Conditions: Oocyte

Compound	Kb [µM]
O=[N+]([O-])c1c(O)nc2cc(Cl)c(Cl)c(Cl)c2c1O	19

Biological target: Glutamate NMDA receptor
Assay: Compound was tested for inhibition of [3H]DCKA binding to NMDA receptor of rat brain membranes
Format: cell membranes, Membrane
Conditions: not given

Compound	IC50 [µM]
O=[N+]([O-])c1c(O)nc2cc(Cl)ccc2c1O	1.5

Biological target: Glutamate NMDA receptor
Assay: Inhibition of [3H]DCKA binding to NMDA receptor of rat brain membranes.
Format: cell membranes, Membrane
Conditions: not given

Compound	IC50 [µM]
O=[N+]([O-])c1c(O)nc2c(Cl)cccc2c1O	> 100
Oc1nc2cc(F)c(Cl)c(F)c2nc1O	0.63
O=c1[nH]c2c(F)c(F)c(F)c(F)c2[nH]c1=O	0.73
O=Nc1c(O)c2cc(Cl)ccc2[nH]c1=O	3.4
Cc1cc(C)c2c(O)c(N=O)c(=O)[nH]c2c1	0.037
Oc1nc2cc(Cl)cc(Cl)c2nc1O	0.28
O=Nc1c(O)c2cc(F)c(Cl)c(F)c2[nH]c1=O	0.91
O=Nc1c(O)nc2ccccc2c1O	1.4
O=[N+]([O-])c1c(O)nc2c(F)c(F)c(F)c(F)c2c1O	> 100
O=[N+]([O-])c1c(O)nc2cc(Cl)c(Cl)c(Cl)c2c1O	0.22
Oc1nc2cc(Cl)c(Cl)c(Cl)c2nc1O	0.03
Oc1nc2cc(Cl)c(Cl)cc2nc1O [2,3-DIHYDROXY-6,7-DICHLOROQUINOXALINE]	0.13
O=[N+]([O-])c1c(O)nc2cc(Cl)c(Cl)cc2c1O	0.4
O=Nc1c(O)nc2cc(Cl)c(Cl)c(Cl)c2c1O	0.007
O=[N+]([O-])c1c(O)nc2ccc(Cl)cc2c1O	> 100

Second part, the compound after the results:

IC50 [µM]	Compound
1.8	O=c1[nH]c2ccc(Cl)cc2[nH]c1=O
61	O=[N+]([O-])c1c(O)nc2cccc(Cl)c2c1O
2.1	Cc1cc(C)c2nc(O)c(O)nc2c1
9.8	Oc1nc2ccccc2nc1O
> 100	O=Nc1c(O)nc2c(Cl)cccc2c1O
0.22	O=[N+]([O-])c1c(O)nc2cc(Cl)cc(Cl)c2c1O
34	O=[N+]([O-])c1c(O)nc2ccccc2c1O
0.033	O=Nc1c(O)c2c(Cl)cc(Cl)cc2[nH]c1=O
4.4	O=Nc1c(O)nc2cccc(Cl)c2c1O
0.29	Cc1cc(C)c2c(O)c([N+](=O)[O-])c(O)nc2c1
0.012	O=Nc1c(O)nc2cc(Cl)c(Cl)cc2c1O
3.3	O=Nc1c(O)c2c(F)c(F)c(F)c(F)c2[nH]c1=O
> 100	O=[N+]([O-])c1c(O)nc2c(Cl)c(Cl)c(Cl)cc2c1O
40	O=[N+]([O-])c1c(O)nc2c(F)c(Cl)c(F)cc2c1O
0.053	O=Nc1c(O)nc2cc(Cl)ccc2c1O

System: not listed separately
Assay: Compound was tested for steady-state selectivity index for inhibition at NMDAreceptor glycine sites was estimated by dividing Kb AMPA by Kb glycine.
Format: functional
Conditions: not given

Compound	Selectivity
O=[N+]([O-])c1c(O)nc2cc(Cl)c(Cl)c(Cl)c2c1O	240

System: not listed separately
Assay: Compound was tested for steady-state selectivity index for inhibition at NMDA receptor glycine sites was estimated by dividing Kb AMPA by Kb glycine.
Format: functional
Conditions: not given

Compound	Selectivity
O=[N+]([O-])c1c(O)nc2cc(Cl)cc(Cl)c2c1O	118
Cc1cc(C)c2c(O)c([N+](=O)[O-])c(O)nc2c1	164

Biological target: T1, Glutamate receptor ionotropic, AMPA (Rattus norvegicus)
Assay: Compound was tested for inhibition of AMPA receptors was measured in oocytes expressing rat cerebral cortex poly(A)+ RNA.(Three cells were examined)
Format: functional, cell-based
Conditions: Oocyte

Compound	Kb [µM]
O=[N+]([O-])c1c(O)nc2cc(Cl)cc(Cl)c2c1O	37
